Data reported in patent US11767303B2, “Compounds and methods for inhibiting viral replication and methods of treating and preventing flaviviral infections” (priority 2020, dated 2023).
Where two headings read alike, the source gives them in different places.

What was measured:
[1] = test system: DENV2; test: Viral titer (plaque) reduction assay, DENV2 in A549 cells; format: cell-based, Dengue virus serotype 2; details: Dengue virus, DENV2, A549 cells
Description: Viral Titer Reduction Assay. A viral titer reduction assay was used to determine the compounds' effect on DENV2 and ZIKV strains, as described previously. […] Human A549 lung carcinoma cells and human primary neural progenitor cells were used, as described previously. […] 13:e1006411 (2017), which are hereby incorporated by reference in their entirety. All experiments were performed in triplicates.
A viral plaque reduction assay was performed next to evaluate the antiviral efficacy of these derivatives. Human lung carcinoma A549 cells were infected with DENV2 in the presence of a concentration series of derivatives or a dimethyl sulfoxide (DMSO) control, and viral titers were measured at 48 hrs post-infection, as described previously.

[2] = WST-8 cell proliferation cytotoxicity assay; format: cell-based, human; details: human; Table 4, preliminary SAR, A549 cells; read-out: CC50
Description: (§1) Cytotoxicity Assay. […] All experiments were performed in triplicates.
(§2) To address this concern, next the compound cytotoxicity CC50 was measured using a WST-8 cell proliferation assay, as described previously.

[3] = test system: A549 cells; test: WST-8 cell proliferation cytotoxicity assay; format: cell-based, human; details: A549 cells; read-out: CC50 (A549)
Description: as §1, §2

[4] = target: T1, viral NS3 protease (Dengue virus type 2, UniProt P29990); test: Protein thermal shift assay (PTSA); format: binding
T1 construct: made in house
From the text: Li et al., “Existing Drugs as Broad-Spectrum and Potent Inhibitors for Zika Virus by Targeting NS2B-NS3 Interaction,” Cell Res. 27:1046-1064 (2017), which is hereby incorporated by reference in its entirety.

[5] = test system: ZIKV; test: Immunofluorescence assay of viral protein production in A549 cells; format: cell-based, Zika virus; details: IFA with anti-E 4G2
Description: Immunofluorescence Assay. The immunofluorescence assay was performed using ZIKV-infected cells treated with DMSO or JMX0207, as described previously. Li et al., “Existing Drugs as Broad-Spectrum and Potent Inhibitors for Zika Virus by Targeting NS2B-NS3 Interaction,” Cell Res. 27:1046-1064 (2017); Li et al., “Erythrosin B is a Potent and Broad-Spectrum Orthosteric Inhibitor of the Flavivirus NS2B-NS3 Protease,” Antiviral Res. 150:217-225 (2018), which are hereby incorporated in their entirety. A mouse monoclonal pan anti-E antibody 4G2 (ATCC) and a DyLight® 488 goat anti-mouse IgG (ImmunoReagents, Inc.) were used to monitor viral E protein expression, as described previously. Li et al., “Existing Drugs as Broad-Spectrum and Potent Inhibitors for Zika Virus by Targeting NS2B-NS3 Interaction,” Cell Res. 27:1046-1064 (2017); Li et al., “Erythrosin B is a Potent and Broad-Spectrum Orthosteric Inhibitor of the Flavivirus NS2B-NS3 Protease,” Antiviral Res. 150:217-225 (2018), which are hereby incorporated in their entirety.

[6] = in vitro; details: not told, Perme. (cell permeability)

T1 sequence (P29990 1476-1659): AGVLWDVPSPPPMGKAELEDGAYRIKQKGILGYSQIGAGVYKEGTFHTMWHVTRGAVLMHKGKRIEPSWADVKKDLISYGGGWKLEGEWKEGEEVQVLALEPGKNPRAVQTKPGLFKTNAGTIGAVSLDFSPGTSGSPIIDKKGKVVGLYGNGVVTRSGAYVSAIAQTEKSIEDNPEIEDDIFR

SMILES: O=C(Nc1ccc([N+](=O)[O-])cc1Cl)c1cccc([N+](=O)[O-])c1O [JMX0207, N-(2-Chloro-4-nitrophenyl)-2-hydroxy-3-nitrobenzamide]
- EC50 ([1]; 48 hrs post-infection, read-out: EC50-DN2 (A549)): 0.31 µM
- EC50 ([1]; Table 4, preliminary SAR, read-out: EC50-DN2): 0.36 µM
- CC50 [2]: 33.9 µM
- CC50 [3]: 31.9 µM
- increase in Tm of the viral protein [4]: 0.75 °C
- ZIKV antigen production [5]: greatly reduced ZIKV antigen production in A549 cells in a dose-dependent manner
- Papp [6]: > 1 ×10⁻⁶ cm/s
